The values below come from PubChem BioAssay (NCI).

“And” between values parts separate entries of the source, which are not always exact repeats. Identical values can stand only once.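 Growth conditions: 96-well plates. Treatment: test compound, 48 hours, 5 concentrations. Analysis: linear interpolation between bracketing concentrations; unreached endpoints set to highest concentration. GI50 is the concentration that inhibits growth by half. Definition used: TGI = concentration required for complete inhibition of growth.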

Test systems include BT-549 breast; HCT-116 colon; MDA-MB-231 breast; NCI-H23 lung; SK-MEL-28 melanoma; HT29 colon; ACHN renal; LOX IMVI melanoma; RXF 393 renal.
Common to all, as to test: DTP human tumour cell line panel, 48 h

On to `COC(=O)c1ccc(OCc2ccc3nc(-c4ccccc4)c(Cl)nc3c2)cc1`, for which the total growth inhibition concentration (TGI) with BT-549 breast was greater than 100 µM; with HCT-116 colon, greater than 100 µM; in the experiment on MDA-MB-231 breast, 60.2 µM; with NCI-H23 lung it was greater than 100 µM; in the experiment on SK-MEL-28 melanoma, greater than 100 µM; in the experiment with HT29 colon, greater than 100 µM. In addition, the concentration for total growth inhibition (TGI) with ACHN renal and with LOX IMVI melanoma was greater than 100 µM in each case.
For the compound `COc1cc2c(cc1OC)C1Cc3ccccc3CN1CCC2` (stereo not drawn), the TGI with HCT-116 colon, in the experiment on MDA-MB-231 breast, with NCI-H23 lung, in the experiment with SK-MEL-28 melanoma, with HT29 colon and with ACHN renal was greater than 100 µM in each case. For the same compound, the TGI in the experiment with LOX IMVI melanoma and in the experiment on RXF 393 renal was greater than 100 µM each time.
Turning to `Cc1cnc2[nH]c(-c3ccccc3)cc(=O)c2c1`, the TGI is greater than 100 µM in the experiment with BT-549 breast; greater than 100 µM in the experiment with HCT-116 colon; greater than 100 µM in the experiment with MDA-MB-231 breast; greater than 13.5 µM in the experiment on NCI-H23 lung; greater than 100 µM with SK-MEL-28 melanoma; 0.0732 µM in the experiment on HT29 colon. Moreover, the TGI in the experiment with ACHN renal and with LOX IMVI melanoma was greater than 100 µM each time.
In the case of `O=C(CCCN1CCc2[nH]c3cc(F)ccc3c2C1)c1ccc(F)cc1`, the total growth inhibition concentration (TGI) in the experiment with HCT-116 colon amounted to 24.2 µM; in the experiment on MDA-MB-231 breast, 25.5 µM; with NCI-H23 lung, 28 µM; with SK-MEL-28 melanoma, 34.9 µM; with HT29 colon, 20.5 µM; in the experiment on ACHN renal it was 26.8 µM. Further, the TGI with LOX IMVI melanoma was determined as 17.5 µM; in the experiment on RXF 393 renal, 28.3 µM.
Turning to `COc1cccc(N2N=C3c4ccccc4-n4c(nc5ccccc54)C3C2N)c1` (stereo not drawn), the total growth inhibition concentration (TGI) in the experiment with BT-549 breast, with HCT-116 colon, in the experiment on MDA-MB-231 breast, in the experiment on NCI-H23 lung, with SK-MEL-28 melanoma and with HT29 colon was greater than 100 µM throughout. Besides, the total growth inhibition concentration (TGI) in the experiment on ACHN renal and in the experiment with LOX IMVI melanoma was greater than 100 µM throughout.
For the compound `CCOc1cc(C=O)ccc1O`, the TGI in the experiment with HCT-116 colon, with MDA-MB-231 breast, with NCI-H23 lung, in the experiment with SK-MEL-28 melanoma, in the experiment with HT29 colon and in the experiment with ACHN renal was greater than 100 µM throughout. The total growth inhibition concentration (TGI) in the experiment with LOX IMVI melanoma was greater than 100 µM.
With `CSc1s[s+]c(SC)c1-c1ccccc1`, the concentration for total growth inhibition (TGI) was 28.2 µM with BT-549 breast; 29.5 µM in the experiment with HCT-116 colon; 31.2 µM in the experiment with MDA-MB-231 breast; 34.7 µM in the experiment with NCI-H23 lung; 32.3 µM in the experiment with HT29 colon; 32.8 µM in the experiment with ACHN renal. Further, the TGI worked out at 52 µM in the experiment on LOX IMVI melanoma and 30.4 µM in the experiment on RXF 393 renal.
Consider `Cc1ccc(C2=Nn3c(nc4sc(-c5ccccc5)cc4c3=O)SC2)cc1`, for which the TGI in the experiment with BT-549 breast, with HCT-116 colon, in the experiment with MDA-MB-231 breast, with NCI-H23 lung, with SK-MEL-28 melanoma and in the experiment with HT29 colon was greater than 100 µM each time. Further, the concentration for total growth inhibition (TGI) with ACHN renal and in the experiment with LOX IMVI melanoma was greater than 100 µM in each case.
`CCOC(=O)C(Cc1c(-c2[nH]c3ccccc3c2CC(NC(=O)CNC(C)=O)C(=O)OCC)[nH]c2ccccc12)NC(=O)CNC(C)=O` (stereo not drawn): the TGI is greater than 100 µM in the experiment on BT-549 breast; greater than 100 µM with HCT-116 colon; 40.6 µM in the experiment with MDA-MB-231 breast; greater than 100 µM with NCI-H23 lung; greater than 100 µM with SK-MEL-28 melanoma; greater than 100 µM in the experiment on HT29 colon.
As for `c1ccc(C/C(=N\Nc2nc3ccccc3o2)c2ccccn2)cc1`, the total growth inhibition concentration (TGI) with BT-549 breast was 5.73 µM; in the experiment on HCT-116 colon, 3.68 µM; in the experiment on MDA-MB-231 breast it was 16.7 µM; with NCI-H23 lung, greater than 36.4 µM; in the experiment with HT29 colon it was 4.56 µM; in the experiment on ACHN renal, 3.31 µM. Further, the values for the TGI with LOX IMVI melanoma and in the experiment with RXF 393 renal were 2.27 µM and 1.92 µM, respectively.
For the compound `COc1ccc(S(=O)(=O)Nc2ccc(-c3csc(N4C(=O)/C(=C/C=C\c5ccccc5)N=C4c4ccccc4)n3)cc2)cc1Cl`, the TGI is 68.5 µM with HCT-116 colon; 51.6 µM with MDA-MB-231 breast; 42.4 µM in the experiment with NCI-H23 lung; greater than 100 µM with SK-MEL-28 melanoma; greater than 100 µM in the experiment with HT29 colon; greater than 100 µM in the experiment on ACHN renal. Moreover, the values for the concentration for total growth inhibition (TGI) in the experiment with LOX IMVI melanoma and with RXF 393 renal were 46.3 µM and 62.5 µM, respectively.
For the compound `CN1C/C(=C\c2ccccc2[N+](=O)[O-])C(=O)/C(=C/c2ccccc2[N+](=O)[O-])C1`, the GI50 with BT-549 breast was 0.149 µM and 0.626 µM; with MDA-MB-231 breast, 0.284 µM; in the experiment with NCI-H23 lung it was 0.868 µM; in the experiment on SK-MEL-28 melanoma, 0.906 µM and 1.83 µM; in the experiment with HT29 colon it was 0.173 µM and 0.169 µM; in the experiment with ACHN renal, 0.532 µM and 0.228 µM. Besides, the concentration for 50% growth inhibition (GI50) with RXF 393 renal was 0.477 µM and 0.191 µM. The concentration for total growth inhibition (TGI) is 0.448 µM and 2.09 µM with BT-549 breast; 0.546 µM and 0.415 µM in the experiment on HCT-116 colon; 0.911 µM in the experiment with MDA-MB-231 breast; 3.26 µM and > 20.7 µM with NCI-H23 lung; 3.15 µM and 4.18 µM in the experiment with SK-MEL-28 melanoma; 0.325 µM and 0.409 µM in the experiment with HT29 colon. Besides, the TGI in the experiment on ACHN renal was 1.46 µM and 0.628 µM; in the experiment with RXF 393 renal it was 1.13 µM and 0.485 µM.
On to `Cn1c(=O)c2[nH]c(N/N=C3/SCC(=O)N3Cc3ccccc3)nc2n(C)c1=O`, for which the TGI in the experiment on BT-549 breast, with HCT-116 colon, in the experiment with MDA-MB-231 breast, with NCI-H23 lung, in the experiment with SK-MEL-28 melanoma and with HT29 colon was greater than 100 µM in each case. The TGI with ACHN renal and with RXF 393 renal was greater than 100 µM throughout.
In the case of `C=C1c2nc3ccccc3n2C=C(c2ccccc2)N1c1ccc(OC)cc1`, the TGI in the experiment on BT-549 breast is 38.3 µM; with HCT-116 colon, 59.9 µM; in the experiment with MDA-MB-231 breast, greater than 100 µM; in the experiment on NCI-H23 lung, 74.4 µM; in the experiment with ACHN renal it was 28.7 µM; with LOX IMVI melanoma, greater than 100 µM. In the experiment with RXF 393 renal, this compound yielded a total growth inhibition concentration (TGI) of 83.5 µM.
Consider `COC(=O)c1cc2c3c(c(C(C)=O)c(OC)c2[nH]1)NCC3`, for which the TGI in the experiment with BT-549 breast, with HCT-116 colon, in the experiment on MDA-MB-231 breast, in the experiment with NCI-H23 lung, in the experiment on HT29 colon and in the experiment on ACHN renal was greater than 50 µM each time. In addition, the TGI in the experiment with LOX IMVI melanoma and in the experiment on RXF 393 renal was greater than 50 µM throughout.

As a reminder, the TGI is the concentration at which net growth stops. Low values mean greater sensitivity of the cells, high ones lower sensitivity of the cells. In general, GI50 refers to the concentration at which growth is held to half of that of the control.
